Several values for one entry are separate records, joined by “and”; a condition that tells them apart may be missing. Identical values can stand only once.
Tests used:
[1] = molecular target: cross-linked HIV-1 CA(WT) hexamer (Human immunodeficiency virus type 1 group M subtype B, UniProt P12493, A146C/E177C/M317A/W316A); test: SPR binding to cross-linked CA(WT) hexamers
[2] = molecular target: T1, cross-linked HIV-1 CA(Q67H/N74D) hexamer (Human immunodeficiency virus type 1 group M subtype B, UniProt P12493, A146C/E177C/M317A/N206D/Q199H/W316A); test: biochemical; format: binding
T1 construct: Expression, purification and assembly of recombinant CA; made in house; host or cells: E. coli BL21-DE3 (pET3a)

HIV-1NL4-3 WT CA = test: microbe, parasite or virus in culture; format: cell-based; settings: Human immunodeficiency virus 1, MT4
HIV-1NL4-3 Q67H CA = test: microbe, parasite or virus in culture; format: cell-based; settings: for EC50: Human immunodeficiency virus 1, MT4
HIV-1NL4-3 N74D CA = test: microbe, parasite or virus in culture; format: cell-based; settings: for EC50: Human immunodeficiency virus 1, MT4
HIV-1NL4-3 Q67H/N74D CA = test: microbe, parasite or virus in culture; format: cell-based; settings: for EC50: Human immunodeficiency virus 1, MT4
HIV-1NL4-3 Q67H/K70R CA = test: microbe, parasite or virus in culture; format: cell-based; settings: for EC50: Human immunodeficiency virus 1, MT4, HIV-1NL4-3 Q67H/K70R CA, MT-4 cells, mean ± SD
HIV-1(M66I CA) = format: cell-based; settings: early stage antiviral activity
in vitro = format: cell-based; settings: human; from cytotoxicity (Fig. S7) and antiviral activity (Fig. 5C); read-out: selectivity index
Protocol: (§1) MT4 cells in complete RPMI were mixed with the indicated concentrations of compounds on 96-well plates (1 × 10^4 cells per well). Cells were kept in a humidified 37°C incubator for 2 days. The effect of test compounds on cell viability was measured using CellTiter-Glo (Promega, G7570).

MT4 cells = test: in vitro; format: cell-based; settings: MT4 cells, 2 days, CellTiter-Glo
Protocol: as §1

[3] = molecular target: cross-linked HIV-1 CA(Q67H) hexamer (Human immunodeficiency virus type 1 group M subtype B, UniProt P12493, A146C/E177C/M317A/Q199H/W316A); test: SPR binding to cross-linked CA(Q67H) hexamers
[4] = molecular target: cross-linked HIV-1 CA(N74D) hexamer (Human immunodeficiency virus type 1 group M subtype B, UniProt P12493, A146C/E177C/M317A/N206D/W316A); test: SPR binding to cross-linked CA(N74D) hexamers
[5] = tested on: HIV-1 reverse transcription; set-up: method as in PMID 32612233, PMID 31501601, PMID 33060363; settings: during virus ingress; cited from earlier work
HIV-1 nuclear import = tested on: HIV-1 nuclear import; set-up: method as in PMID 32612233, PMID 31501601, PMID 33060363; settings: during virus ingress; cited from earlier work
HIV-1 integration = tested on: HIV-1 integration; set-up: method as in PMID 32612233, PMID 31501601, PMID 33060363; settings: during virus ingress; cited from earlier work
[6] = WT compared to WT CA (reference)

For `CC(C)(C#Cc1ccc(-c2ccc(Cl)c3c(NS(C)(=O)=O)nn(CC(F)(F)F)c23)c([C@H](Cc2cc(F)cc(F)c2)NC(=O)Cn2nc(C(F)(F)F)c3c2CCCC3)n1)S(C)(=O)=O` [KFA-012], the “improved binding affinity compared with parental LEN” value ([1]; CA(WT) hexamer, SPR) was ~ 2 fold, the “improved binding affinity compared with parental LEN” value ([2]; CA(Q67H/N74D) hexamer, SPR) was ~ 2 fold and the EC50 (HIV-1NL4-3 WT CA) was 0.071 ± 0.006 nM. The “Fold increase of KFA-012 potency versus LEN potency” value (shortened to “Fold increase”) (HIV-1NL4-3 Q67H CA; HIV-1NL4-3 Q67H CA) was 1.8 fold, the EC50 (HIV-1NL4-3 Q67H CA) was 0.335 ± 0.01 nM and the EC50 (HIV-1NL4-3 N74D CA) was 0.633 ± 0.014 nM. The “Fold increase” value (HIV-1NL4-3 Q67H/N74D CA; HIV-1NL4-3 Q67H/N74D CA) was 2.6 fold, the EC50 (HIV-1NL4-3 Q67H/N74D CA) was 9.18 nM and the “Fold increase” value (HIV-1NL4-3 Q67H/K70R CA; HIV-1NL4-3 Q67H/K70R CA) was ~ 1.7 fold. For the same molecule, the EC50 (HIV-1NL4-3 Q67H/K70R CA) was 0.883 ± 0.17 nM, the “susceptibility of the virus to the inhibitor” value (HIV-1(M66I CA)) was “fully resistant” and the selectivity ratio at 2 days (in vitro) was over 10000. The “compound concentrations with adverse effects on cell viability” value (MT4 cells) was over 3 µM and the “concentration up to which no cytotoxicity was observed” value (MT4 cells) was “up to 781 nM”.
With `CC(C)(C#Cc1ccc(-c2ccc(Cl)c3c(NS(C)(=O)=O)nn(CC(F)(F)F)c23)c([C@H](Cc2cc(F)cc(F)c2)NC(=O)Cn2nc(C(F)(F)F)c3c2C(F)(F)[C@@H]2C[C@H]32)n1)S(C)(=O)=O` [LEN, Lenacapavir] the “association rate constant (kon)” value ([1]; CA (WT), mean ± SD) was 7.0 ± 1.6 x 10^4 M^-1s^-1, the “dissociation rate constant (koff)” value ([1]; CA (WT), mean ± SD) was 1.5 ± 0.2 x 10^-5 s^-1 and the Kd ([1]; CA (WT), mean ± SD, three independent experiments, read-out: equilibrium dissociation constant (KD)) was 0.23 ± 0.08 nM. The KD fold change [1, 6] was 1 fold, the koff fold change [1, 6] was 1 fold and the kon fold change [1, 6] was 1 fold. For the same molecule, the “association rate constant (kon)” value ([3]; CA (Q67H), mean ± SD) was 6.4 ± 1.1 x 10^4 M^-1s^-1, the “dissociation rate constant (koff)” value ([3]; CA (Q67H), mean ± SD) was 7.3 ± 1.0 x 10^-5 s^-1 and the Kd ([3]; CA (Q67H), mean ± SD, read-out: equilibrium dissociation constant (KD)) was 1.2 nM. The koff fold change ([3]; Q67H CA compared to WT CA) was 5 fold, the kon fold change ([3]; Q67H CA compared to WT CA) was 0.9 fold and the “association rate constant (kon)” value ([4]; CA (N74D), mean ± SD) was 3.0 ± 0.3 x 10^4 M^-1s^-1. The “dissociation rate constant (koff)” value ([4]; CA (N74D), mean ± SD) was 1.4 ± 0.02 x 10^-4 s^-1, the Kd ([4]; CA (N74D), mean ± SD, read-out: equilibrium dissociation constant (KD)) was 4.6 nM and the koff fold change ([4]; N74D CA compared to WT CA) was ~ 10 fold and 9 fold. For the same molecule, the kon fold change ([4]; N74D CA compared to WT CA) was 0.4 fold, the “adverse effect on association rate constant” value ([4]; N74D CA versus WT CA, stated as fold adverse effect) was ~ 2 fold and the “association rate constant (kon)” value ([2]; CA (Q67H/N74D), mean ± SD) was 3.0 ± 0.9 x 10^4 M^-1s^-1. The “dissociation rate constant (koff)” value ([2]; CA (Q67H/N74D), mean ± SD) was 1.1 ± 0.5 x 10^-3 s^-1, the Kd ([2]; CA (Q67H/N74D), mean ± SD, read-out: equilibrium dissociation constant (KD)) was 34.1 nM and the koff fold change ([2]; Q67H/N74D CA compared to WT CA) was 73 fold. It also gave a kon fold change ([2]; Q67H/N74D CA compared to WT CA) of 0.4 fold, an EC50 (HIV-1NL4-3 WT CA) of 0.091 ± 0.01 nM and an EC50 (HIV-1NL4-3 Q67H CA) of 0.611 ± 0.01 nM. The “decreased potency of the inhibitor with respect to the CA variant” value (HIV-1NL4-3 Q67H CA; Q67H CA variant versus WT) was 7 fold, the EC50 (HIV-1NL4-3 N74D CA) was 0.902 ± 0.027 nM and the “decreased virus susceptibility to the inhibitor” value (HIV-1NL4-3 N74D CA; {}) was ~ 10 fold. For the same molecule, the EC50 (HIV-1NL4-3 Q67H/N74D CA) was 24.2 nM, the EC50 (HIV-1NL4-3 Q67H/K70R CA) was 1.5 ± 0.023 nM and the “susceptibility of the virus to the inhibitor” value (HIV-1(M66I CA)) was “fully resistant”. For the same molecule, the EC50 [5] was 5 to 50 nM, the EC50 (HIV-1 nuclear import) was 0.5 to 5 nM and the EC50 (HIV-1 integration) was 0.05 to 0.5 nM.

From publication PMC9600929, “Structural and Mechanistic Bases of Viral Resistance to HIV-1 Capsid Inhibitor Lenacapavir” (mBio, 2022)
